Several values for one entry are separate records, joined by “and”; a condition that tells them apart may be missing. Identical values can stand only once. Like-named read-outs stand apart in the source and are kept apart here.
Experiments:
[1] = target: dog PDE3A recombinant enzyme (Canis lupus familiaris, UniProt A0A8I3NYE0); test: cPDE3A assay (fluorescent polarization); type: biochemical; details: canine PDE3A, read-out: cPDE3 Inhibition (IC50)
Summary of the method: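 Recombinant dog PDE3A (5 pg/μL final) with FAM-cyclic-3′,5′-AMP substrate, inhibition read as fluorescence polarization change. Compounds tested in ≥7-point series from 10 μM, 0.1% final DMSO; IC50 calculated.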

[2] = tested on: human iCell cardiomyocytes; test: Human iPS cardiomyocyte contractility assay; type: cell-based; details: human cardiomyocytes chronically paced (2 Hz)
Procedure: Human iPS Cardiomyocyte Contractility Assay
Frozen human iCell® cardiomyocytes (FujiFilm® Cellular Dynamics Inc.) were thawed and plated in the center of each well of an Axion® Biosystems cytoview 24-well microelectrode array plate that was coated with human fibronectin in a 5-6 μL droplet at a density of 7-10×10^6 cells/mL. The cells were maintained in culture in a 37° C. humidified incubator at 5% CO2. After at least seven days in culture with maintenance media changes every 2-3 days, the cells were paced at 2 Hz for approximately 48 hours on the Axion® Biosystems Maestro Pro instrument using the field potential application in the Axis Navigator software before returning to the spontaneous beating for at least 10 minutes in the contractility application (i.e., Axion® Biosystems procedure for Positive Inotropy Protocol). […] Readings were taken at 3, 13, 23, 33, 43 and 53 minutes. […] Each compound was evaluated for the contractility response relative to the vehicle control (DMSO). […]
Myocardial contractility represents the innate ability of the heart muscle to contract. […] Cardiomyocyte contractibility of the compounds of the invention, as defined by changes in mean % delta beat amplitude, were determined to have a positive inotropic effect (i.e., a stronger cardiac muscle contraction force).

[3] = Dog plasma half-life after oral dose; type: in vivo; details: Beagle dogs, plasma over 72 hours, read-out: t½ (hrs), Dog Plasma Compound Half-life (converted)
Procedure: Lastly, plasma half-life was assessed for a number of compounds in dogs. Beagle dogs were given an oral dose (0.1 mg/kg) of the respective compound accounting for a dose amount of about 1 mg/dog. Pimopendan was administered at a 0.3 mg/kg dose.

NT-proBNP = NT-proBNP circulating biomarker reduction; type: in vivo, canine; details: for reduced NT-proBNP levels: over a 12 hour period
Procedure: NT-proBNP is a standard circulating biomarker of canine MMVD secreted by ventricular cardiomyocytes in response to stretching from volume or pressure overload. It is a well-defined diagnostic and prognostic biological indicator of myocardial wall stress and can be used as a biomarker for acute changes in left ventricular loading conditions. […] In one instance, Example #26 had reduced NT-proBNP levels by 49% and 62% at doses of 0.03 and 0.1 mg/kg, respectively, over a 12 hour period.

PDE3 = details: JMC Vol. 35, 1992; cited from earlier work
[4] = orally administered; cited from earlier work
calcium sensitization = details: JMC Vol. 35, 1992; cited from earlier work
[5] = tested on: adult human primary ventricular cardiomyocytes; test: contractility amplitude (CA) assay; type: cell-based; details: for Contractility amplitude: vehicle 100, 1 Hz
Procedure: Further, Example #57 (30 μM) was tested in a contractility amplitude (CA) assay using adult human primary ventricular cardiomyocytes dissociated from human donor hearts to determine the potential of the compound to exert its positive inotropic effect by a single (Ca^2+ sensitization or inhibition of PDE3) or dual (Ca^2+ sensitization and inhibition of PDE3) mechanism of action. Cardiomyocytes were incubated at 35° C. under continuous perfusion (2 mL/minute) in a buffer (vehicle) solution (HEPES (10 mM), NaCl (145 mM), KCl (4 mM), MgCl2 1 mM), CaCl2) (1.8 mM) and dextrose (11.1 mM)) plus 0.1% DMSO). Cells were equilibrated for a minimum of 5 minutes and stimulated with 1.0 Hz with a 1.5× stimulation intensity. A 100 μM IBMX (3-isobutyl-1-methylxanthine) non-selective inhibitor of PDE was used. Treatment time and stimulation was 300 seconds at 1.0 Hz. Data was collected using MyoBLAZER™ (v 2.9.2) software. Equilibrated cells (n=12) were stimulated with supra-threshold voltage at 1 Hz pacing frequency (bipolar pulse of 3 ms duration). Starting at 1 V, the amplitude of the stimulating pulse was increased until the cardiomyocytes started generating contraction-relaxation cycles. Contractility amplitude was calculated from the average of the last 20 contractility transients. Contractility amplitude for vehicle, IBMX and IBMX with Example #57 was 100, 136.8 and 267.6, respectively. […] IBMX increased CA by inhibiting PDE, however, there was an even larger increase in CA in the presence of Ex #57. Additionally, the CA assay was used to assess the potential of Ex #57 to exert a shift in the calcium concentration EC50. […] From this second CA study, contractility of the myocytes was dose dependent on calcium concentration. Contractility at 100 μM, 1000 μM and 10,000 μM CaCl2 was 3.11, 56.31 and 228.61, respectively. With the addition of 30 μM Ex #57, respective contractility values increased to 40.17, 182.67 and 284.27.

Chain of dog PDE3A recombinant enzyme (A0A8I3NYE0 1-1135): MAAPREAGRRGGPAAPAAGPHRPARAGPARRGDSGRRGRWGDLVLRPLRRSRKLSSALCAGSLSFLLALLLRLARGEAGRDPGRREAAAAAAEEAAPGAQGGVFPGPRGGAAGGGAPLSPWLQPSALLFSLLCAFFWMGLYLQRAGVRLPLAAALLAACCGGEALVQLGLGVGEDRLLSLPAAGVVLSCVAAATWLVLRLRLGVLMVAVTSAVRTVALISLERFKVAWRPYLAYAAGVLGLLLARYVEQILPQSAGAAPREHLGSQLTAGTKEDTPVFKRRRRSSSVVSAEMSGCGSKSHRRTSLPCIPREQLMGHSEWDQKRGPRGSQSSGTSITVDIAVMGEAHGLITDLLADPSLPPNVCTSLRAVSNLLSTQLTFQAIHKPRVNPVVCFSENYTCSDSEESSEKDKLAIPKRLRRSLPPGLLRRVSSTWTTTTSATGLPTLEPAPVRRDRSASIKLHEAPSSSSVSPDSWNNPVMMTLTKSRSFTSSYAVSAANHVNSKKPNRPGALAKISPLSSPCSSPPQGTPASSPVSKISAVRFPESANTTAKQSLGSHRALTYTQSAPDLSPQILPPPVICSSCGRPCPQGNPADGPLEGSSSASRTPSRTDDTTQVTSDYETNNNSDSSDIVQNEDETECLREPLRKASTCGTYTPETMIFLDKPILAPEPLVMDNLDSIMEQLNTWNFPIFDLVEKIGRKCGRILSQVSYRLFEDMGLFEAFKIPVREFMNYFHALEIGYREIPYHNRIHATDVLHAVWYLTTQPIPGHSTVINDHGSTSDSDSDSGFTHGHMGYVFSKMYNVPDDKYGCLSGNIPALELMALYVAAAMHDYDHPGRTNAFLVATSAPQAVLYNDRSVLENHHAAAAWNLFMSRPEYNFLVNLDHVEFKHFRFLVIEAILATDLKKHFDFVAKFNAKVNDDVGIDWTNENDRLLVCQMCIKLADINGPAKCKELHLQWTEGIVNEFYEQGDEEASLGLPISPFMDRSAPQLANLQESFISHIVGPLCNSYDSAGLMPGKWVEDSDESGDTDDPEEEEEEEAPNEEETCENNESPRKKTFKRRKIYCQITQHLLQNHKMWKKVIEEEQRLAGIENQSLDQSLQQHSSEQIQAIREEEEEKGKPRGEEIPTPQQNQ

Q: Which IC50 [1] does the source give for `COc1ccc(-c2nc3ccc(C4=NNC(=O)CC4C)cc3[nH]2)cc1` (racemic) [pimobendan, 6-(2-(4-methoxyphenyl)-1H-benzo[d]imidazol-6-yl)-5-methyl-4,5-dihydropyridazin-3 (2H)-one] here?
A: ~1530 nM and 1530 nM

Q: And the “contractility of cardiomyocytes (changes in mean % delta beat amplitude)” value [2]?
A: dose dependently increases contractility

Q: What about the half-life ([3]; oral, 0.3 mg/kg dose) of the same compound?
A: 0.4 h

Q: And the “decrease in NT-proBNP” value (NT-proBNP; labeled dose, 24 hours post dose)?
A: 41%

Q: And the IC50 (PDE3)?
A: 560 nM

Q: And the bioavailability [4]?
A: 60-65%

Q: What about the elimination half-life [4] of the same compound?
A: ~1.6 h

Q: What about the tmax [4] of the same compound?
A: about 2 hours

Q: Which results are given for `CC1(C)C(=O)Nc2ccc(C3=NNC(=O)CC3)cc21` [indolidan]?
A: IC50 (PDE3): 520 nM; calcium-sensitizing properties (calcium sensitization): lacked calcium-sensitizing properties

Q: What does the source list for `CC1SC(=O)NN=C1c1cc(F)c2c(c1)CC(=O)N2` (centres unmarked) [Example #57, 5-(7-fluoro-2-oxoindolin-5-yl)-6-methyl-3,6-dihydro-2H-1,3,4-thiadiazin-2-one]?
A: IC50 [1]: 14.2 nM; Contractility ([5]; 100 μM CaCl2 with 30 μM Ex #57 (3.11 without)): 40.17; Contractility amplitude ([5]; 100 μM IBMX with 30 μM Example #57): 267.6; Contractility ([5]; 1000 μM CaCl2 with 30 μM Ex #57 (56.31 without)): 182.67; Contractility ([5]; 10,000 μM CaCl2 with 30 μM Ex #57 (228.61 without)): 284.27; EC50 ([5]; Homo sapiens, Cardiomyocyte, without Ex #57 1286 μM, read-out: calcium concentration EC50 with Ex #57): 821000 nM; half-life ([3]; oral dose 0.1 mg/kg): 10 h

Q: With `Cc1cc(C2=NNC(=O)SC2C)cc2sc(=O)[nH]c12` (centres unmarked) [Example #55, 4-methyl-6-(6-methyl-2-oxo-3,6-dihydro-2H-1,3,4-thiadiazin-5-yl)benzo[d]thiazol-2 (3H)-one] as the compound, how does the IC50 [1] read?
A: 3.8 nM

Q: What about the half-life ([3]; oral dose 0.1 mg/kg) of the same compound?
A: 3.2 h

Q: Which IC50 [1] does the source give for `CC1CC(=O)NN=C1c1cc(Cl)c2c(c1)C(C)(C)C(=O)N2` (racemic) [Example #24, 7-chloro-3,3-dimethyl-5-(4-methyl-6-oxo-1,4,5,6-tetrahydropyridazin-3-yl)indolin-2-one] here?
A: 5.4 nM

Q: And the half-life ([3]; oral dose 0.1 mg/kg)?
A: 50 h

Q: For `CC1(C)C(=O)Nc2c(Br)cc(C3=NNC(=O)SC3)cc21` [Example #66, 5-(7-bromo-3,3-dimethyl-2-oxoindolin-5-yl)-3,6-dihydro-2H-1,3,4-thiadiazin-2-one], which IC50 [1] is on record?
A: 24.4 nM

Q: And the half-life ([3]; oral dose 0.1 mg/kg)?
A: 10.2 h

Q: Which IC50 [1] does the source give for `CC1CC(=O)NN=C1c1cc(F)c2c(c1)C(C)(C)C(=O)N2` (centres unmarked) [Example #26, 7-fluoro-3,3-dimethyl-5-(4-methyl-6-oxo-1,4,5,6-tetrahydropyridazin-3-yl)indolin-2-one] here?
A: 7.4 nM

Q: What about the “reduced NT-proBNP levels” value (NT-proBNP; 0.03 mg/kg) of the same compound?
A: 49%

Q: And the “reduced NT-proBNP levels” value (NT-proBNP; 0.1 mg/kg)?
A: 62%

Q: Which IC50 [1] does the source give for `CC1(C)C(=O)Nc2c(Cl)cc(-c3ccc(=O)[nH]n3)cc21` [Example #25, 7-chloro-3,3-dimethyl-5-(6-oxo-1,6-dihydropyridazin-3-yl)indolin-2-one] here?
A: 15.7 nM

Q: And the half-life ([3]; oral dose 0.1 mg/kg)?
A: 50 h

Q: What does the source list for `CC1SC(=O)NN=C1c1cc(Cl)c2[nH]c(=O)sc2c1` (centres unmarked) [Example #56, 4-chloro-6-(6-methyl-2-oxo-3,6-dihydro-2H-1,3,4-thiadiazin-5-yl)benzo[d]thiazol-2 (3H)-one]?
A: IC50 [1]: 3.6 nM; half-life ([3]; oral dose 0.1 mg/kg): 15 h

Q: What does the source list for `CC1CC(=O)NN=C1c1cc2c(c(-c3cccc(F)c3)c1)NC(=O)CC2` (centres unmarked) [Example #12, 8-(3-fluorophenyl)-6-(4-methyl-6-oxo-1,4,5,6-tetrahydropyridazin-3-yl)-3,4-dihydroquinolin-2 (1H)-one]?
A: IC50 [1]: 90.9 nM; half-life ([3]; oral dose 0.1 mg/kg): 10.4 h

Q: With `CC1SC(=O)NN=C1c1cc2c(c(-c3ccc(Cl)cc3)c1)NC(=O)C2` (centres unmarked) [Example #71, 5-(7-(4-chlorophenyl)-2-oxoindolin-5-yl)-6-methyl-3,6-dihydro-2H-1,3,4-thiadiazin-2-one] as the compound, how does the IC50 [1] read?
A: 90.4 nM

Q: What about the half-life ([3]; oral dose 0.1 mg/kg) of the same compound?
A: 5.4 h

Q: With `CC1SC(=O)NN=C1c1cc(-c2cscn2)c2c(c1)C(C)(C)C(=O)N2` (centres unmarked) [Example #68, 5-(3,3-dimethyl-2-oxo-7-(thiazol-4-yl)indolin-5-yl)-6-methyl-3,6-dihydro-2H-1,3,4-thiadiazin-2-one] as the compound, how does the IC50 [1] read?
A: 118 nM

Q: And the half-life ([3]; oral dose 0.1 mg/kg)?
A: 12 h

Q: Which IC50 [1] does the source give for `O=C1CCCc2cc(C3=NNC(=O)SC3)ccc2N1` [Example #72, 5-(2-oxo-2,3,4,5-tetrahydro-1H-benzo[b]azepin-7-yl)-3,6-dihydro-2H-1,3,4-thiadiazin-2-one] here?
A: 28.2 nM

Q: What about the half-life ([3]; oral dose 0.1 mg/kg) of the same compound?
A: 3.9 h

Q: For `CC1(C)C(=O)Nc2c(Cl)cc(-c3cncnc3)cc21` [Example #86, 7-chloro-3,3-dimethyl-5-(pyrimidin-5-yl)indolin-2-one], which IC50 [1] is on record?
A: 115 nM

Q: And the half-life ([3]; oral dose 0.1 mg/kg)?
A: 96 h

Q: Which Contractility amplitude ([5]; 100 μM IBMX alone) does the source give for `CC(C)Cn1c(=O)n(C)c(=O)c2[nH]cnc21` [IBMX, 3-isobutyl-1-methylxanthine, reference compound] here?
A: 136.8

Source: patent US20240308973A1, “PHOSPHODIESTERASE 3 (PDE3) INHIBITORS” (Zoetis Services LLC, priority 2023, published 2024)
